# Laboratory results taken from PMC9266368, “Synthesis and Biological Evaluation of Small Molecules as Potential Anticancer Multitarget Agents” (International Journal of Molecular Sciences, 2022).
# Experiments:
# [1] = system: A-549 (lung adenocarcinoma); experiment: MTT cell viability assay, A-549; type: cell-based; settings: Homo sapiens, A549, 48 h, 2 days incubation, average ±SD of three experiments
# Protocol: (§1) The effects of triazole derivatives 1–26 on the cell viability were determined by MTT assay, and the IC50 values were determined toward the human tumor cell lines HT-29 (colon adenocarcinoma), A-549 (lung adenocarcinoma), and MCF-7 (breast adenocarcinoma), as well as toward the non-tumor cell line HEK-293 (human embryonic kidney cells).
# (§2) In 96-well plates, 3 × 10^3 (A549 and HEK-293) or 5 × 10^3 (HT-29, MCF-7) cells per well were incubated with serial dilutions of the tested compounds in a total volume of 100 μL of their growth media. The 3-(4,5-dimethylthiazol-2-yl)-2,5-diphenyltetrazolium bromide (MTT; Sigma Chemical Co.) dye reduction assay in 96-well microplates was used. After 2 days of incubation (37 °C, 5% CO2 in a humid atmosphere), 10 μL of MTT (5 mg/mL in phosphate-buffered saline, PBS) was added to each well, and the plate was incubated for a further 3 h (37 °C). After that, the supernatant was discarded and replaced by 100 µL of DMSO to dissolve formazan crystals. The absorbance was then read at 550 nm by spectro-photometry. For all concentrations of compound, cell viability was expressed as the percentage of the ratio between the mean absorbance of treated cells and the mean absorbance of untreated cells. Three independent experiments were performed, and the IC50 values (i.e., concentration half inhibiting cell proliferation) were graphically determined by using GraphPad Prism 4 software (2019).
# [2] = system: MCF-7 (breast adenocarcinoma); experiment: MTT cell viability assay, MCF-7; type: cell-based; settings: Homo sapiens, MCF7, 48 h, 2 days incubation, average ±SD of three experiments
# Protocol: as §1, §2
# membrane PD-L1 (mPD-L1) = biological target: T1, membrane PD-L1 (mPD-L1) (Homo sapiens, UniProt Q9NZQ7); experiment: Membrane PD-L1 relative quantification by flow cytometry; type: cell-based; settings: for mPD-L1 relative detection, A-549 / mPD-L1 relative detection, MCF-7 / mPD-L1 relative detection, HT-29: 24 h, 100 or 10 μM (Table 7), percentage referred to DMSO control
# T1 construct: endogenous in cells; host or cells: HT-29, A-549, MCF-7
# T1 sequence (Q9NZQ7 19-290): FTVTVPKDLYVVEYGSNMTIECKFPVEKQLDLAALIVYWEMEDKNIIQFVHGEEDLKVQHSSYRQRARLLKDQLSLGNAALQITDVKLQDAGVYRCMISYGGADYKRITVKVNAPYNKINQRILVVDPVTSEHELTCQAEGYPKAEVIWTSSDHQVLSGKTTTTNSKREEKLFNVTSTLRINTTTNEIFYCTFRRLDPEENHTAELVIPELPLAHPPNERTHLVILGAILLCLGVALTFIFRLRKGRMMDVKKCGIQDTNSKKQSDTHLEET
# Protocol: Based on antiproliferative activity of synthetized derivatives, we decided to study the effect of the amino derivatives 14–26 on the expression of both membrane targets PD-L1 and VEGFR-2 (mPD-L1 and mVEGFR-2). The evaluation was performed on three cancer cell lines (HT-29, A-549, and MCF-7) by flow cytometry after 24 h of treatment with the corresponding compounds. Compounds were used at a 100 or 10 μM concentration depending on their IC50 value (see Table 1 in Materials and Methods section). The presence of both targets in the membrane was relatively determined by using DMSO-treated cells as a negative control.
# To study the effect of the compounds on every biological target in cancer cell lines the compounds were used at a 100 or 10 μM dose, depending on their IC50 and the treated cell line.
# For the assay, 10^5 cells per well were incubated for 24 h with the corresponding dose of the tested compound in a total volume of 500 μL of their growth media.
# To detect membrane PD-L1 and VEGFR-2, after the cell treatments, they were collected, fixed with 4% in PBS paraformaldehyde, and stained with FITC Mouse monoclonal Anti-Human VEGFR-2 (ab184903) and Alexa Fluor® 647 Rabbit monoclonal Anti-PD-L1 (ab215251).
# VEGFR-2 kinase activity = experiment: ADP assay of kinase activity in HT-29 cells; type: cell-based, human; settings: 100 μM, 24 h; DMSO as negative control
# Protocol: Finally, to assess the VEGFR-2 inhibitory activity of the selected compounds, namely 21, 22, and 23, we performed an ADP assay. This is a very useful technique that measures kinase activity by monitoring ADP accumulation in cell cultures instead of ATP concentrations.
# For the assay, we used HT-29 cells that were previously treated with a 100 μM concentration of 21, 22, and 23, and we used DMSO as a negative control.
# The kinase inhibitory activity of the selected compounds was studied as follows: first 10^5 HT-29 cells were seeded on a 12 well-plate, and then they were treated with 100 μM of the selected compounds for 24 h. Afterward, cells were collected, and the kinase activity was determined from collected pellets by following the manufacturer’s instructions indicated in the ADP Colorimetric Assay Kit II (Abcam S.A. reference ab282932).
Structure (SMILES),IC50 [1] [µM],IC50 [2] [µM],"mPD-L1 relative detection, A-549 (membrane PD-L1 (mPD-L1)) [%]","mPD-L1 relative detection, MCF-7 (membrane PD-L1 (mPD-L1)) [%]",Kinase activity measured in HT-29 cell cultures (VEGFR-2 kinase activity) [%],"mPD-L1 relative detection, HT-29 (membrane PD-L1 (mPD-L1); HT-29) [%]","Reduction/inhibition of membrane PD-L1, HT-29 (membrane PD-L1 (mPD-L1); HT-29, compared to non-treated cells)"
"Nc1ccc(-c2cn(Cc3ccccc3Cl)nn2)cc1 [Compound 21, 4-(1-(2-chlorobenzyl)-1H-1,2,3-triazol-4-yl)aniline]",> 100,11 ± 2,95 ± 5,83 ± 7,46 ± 10,,
"Nc1ccc(-c2cn(Cc3cccc(Cl)c3)nn2)cc1 [Compound 22, 4-(1-(3-chlorobenzyl)-1H-1,2,3-triazol-4-yl)aniline]",> 100,8 ± 2,82 ± 18,90 ± 2,33 ± 4,27 ± 5,
"Nc1ccc(-c2cn(Cc3ccc(Cl)cc3)nn2)cc1 [Compound 23, 4-(1-(4-chlorobenzyl)-1H-1,2,3-triazol-4-yl)aniline]",> 100,9 ± 6,>100,86 ± 3,31 ± 8,38 ± 5,around 70%
